Experimental data: patent US7968556B2, “Heteroaryl compounds, compositions thereof, and methods of treatment therewith” (Signal Pharmaceuticals, LLC, priority 2006, dated 2011)

Experiments:
Tyk2 = molecular target: T1, Tyk2 (Homo sapiens, UniProt P29597); assay: Tyk2 HTRF Assay; format: biochemical
T1 construct: 450 ng/ml TYK2 KD (Cama Biosciences 08-147 Lot 06CBS-3022D); purchased Cama Biosciences (so in the source)
T1 sequence (P29597 897-1176 limits assumed): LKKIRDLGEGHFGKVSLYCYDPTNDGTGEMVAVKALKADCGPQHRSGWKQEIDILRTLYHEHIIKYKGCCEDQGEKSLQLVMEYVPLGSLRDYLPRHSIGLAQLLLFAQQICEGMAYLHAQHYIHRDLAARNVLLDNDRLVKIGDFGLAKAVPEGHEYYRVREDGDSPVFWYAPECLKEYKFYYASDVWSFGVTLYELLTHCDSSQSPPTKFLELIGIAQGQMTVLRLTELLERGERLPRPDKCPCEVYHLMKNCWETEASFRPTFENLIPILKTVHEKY
Description: The following is an example of an assay that can be used to determine the Tyk2 inhibitory activity of a test compound.
25 μl/well DMSO is added to Columns 2 and 14 (except 28.5 μl is added to well P14 of Greiner 384-well polypropylene plate). 20 μl/well DMSO is added to all remaining wells.
5 mM compound solutions are added by addition of 5 μl of 30 mM compound to 25 μl DMSO in Columns 2 and 14 of plate. 1.5 mM reference control is prepared by addition of 1.5 μl of 30 mM JAK3 Inhibitor VI to 28.5 μl DMSO in Well P14.
(§1) Serial dilution is then performed by the following steps: (i) Compounds in Column 2 are mixed by pipetting 20 μl up and down 6X; (ii) 10 μl/well compounds in DMSO are transferred from one column to the next column for Columns 2-11; (iii) wells are mixed by pipetting 20 μl up and down 6×; (iv) tips are washed 3×25 μl DMSO, 2×25 μl next DMSO; (v) steps i-iv repeated for Columns 14-23.
(§2) The following buffers are prepared:
Assay Buffer: 50 mM HEPES pH 7.6; 1 mM DTT; 10 mM MgCl2; 0.01% Triton X100; 0.01% BSA; and 0.1 mM EDTA.
Kinase in Assay Buffer: 450 ng/ml TYK2 KD (Cama Biosciences 08-147 Lot 06CBS-3022D).
Substrate/Detection Mixture (1×ATP) in Assay Buffer: 188 nM DyLight 647-Streptavidin (Pierce 21824); 5 μM Biotin-EQEDEPEGDYFEWLE (Lyn Substrate Peptide); 750 ng/ml Eu-anti-phospho-Tyrosine (PerkinElmer AD0069); 62.5 μM ATP; 80 nM Substrate Peptide (American Peptide Company 332722).
Substrate/Detection Mixture (20×ATP) in Assay Buffer: 188 nM DyLight 647-Streptavidin; 5 μM Biotin-EQEDEPEGDYFEWLE; 750 ng/ml Eu-anti-phospho-Tyrosine; 1250 μM ATP; 80 nM Substrate Peptide.
14.5 μl/well Enzyme Mix or Dilution Buffer (Background Controls) is added to Costar 384 well black plates.
(§3) Compound addition and mixture is performed by the following steps: (i) 0.5 μl/well DMSO/compounds in DMSO is transferred from Greiner 384-well polypropylene plate to a plate containing 14.5 μl/well Enzyme Mix and Dilution Buffer; (ii) mixed by pipetting 10 μl up and down 4×; (iii) tips are washed 4×10 μl in DMSO, 2×20 μl in other DMSO; (iv) steps i-iii are repeated until all plates are completed.
10 μl/well Substrate/Detection Mixtures is added and incubated at room temperature 2 hours (on shaker for first 2+ minutes).
10 μl/well 50 mM EDTA/0.01% Triton X100 is added and incubated >15 minutes at room temperature (on shaker for first 2+ minutes).
Plates are read at 665 nm and 620 nm emission on Analyst GT protocol HTRF_SP_A (Counts= 665/620×10000).

Syk = molecular target: T2, Syk (Homo sapiens, UniProt P43405); assay: Syk HTRF Assay; format: biochemical
T2 construct: purchased Cama Biosciences (so in the source)
Description: 5 μl/well DMSO is added to Column 2 Wells A-0 and 29.5 μl to well P2 of Greiner 384-well polypropylene plate. 20 μl/well DMSO is added to Columns 1 and 3-12.
25 mM compound solutions are prepared by the addition of 25 μl of 30 mM compound to Column 2 and 0.5 μl 30 mM reference control to well P2.
as §1, with “compounds” for “Compounds”, “6×;” for “6X;”, “tips” for “tips are”, “DMSO.” for “DMSO; (v) steps i-iv repeated for Columns 14-23.”
as §2
Dilution Buffer: 50 mM HEPES pH 7.6; 1 mM DTT; 10 mM MgCl2; 0.01% Triton X100; 0.01% BSA; 0.1 mM EDTA.
Enzyme Mix in Dilution Buffer: 8.621 ng/ml Syk (Cama Biosciences 08-176).
Start Mix in Dilution Buffer: 87.5 μM ATP; 80 nM Substrate Peptide (American Peptide Company 332722).
14.5 μl/well Enzyme Mix or Dilution Buffer (Background Controls) is added to Costar 384-well black plates.
as §3, with “DMSO” for “DMSO is”, “to left half of assay” for “to a”, “(ii) Mix” for “(ii) mixed”, “repeated with transfer to right half of assay plate; (v) steps i-iv are repeated with each compound/assay plate” for “repeated”
10 μl/well Start Mix is added and incubated at room temperature on shaker for 2 minutes (1 hour total reaction time).
Stop Solution in Dilution Buffer: 120 mM EDTA
Antibody Mix in Dilution Buffer: 4.86 μg/ml DyLight 647 Streptavidin (Pierce 21824); 1 μg/ml Lance Eu-Anti-Phosphotyrosine (PerkinElmer AD0069).
5 μl/well[…] is added and incubated at room temperature on shaker for 2 minutes.
[…] Antibody Mix is added and Incubated at room temperature on shaker for 2 minutes (4 hours to overnight total time).
Plates are read at 665 nm and 620 nm emission on Analyst GT protocol HTRF_SP_A or EnVision protocol Steve's TR-FRET.

IC50 (Tyk2) [µM]	IC50 (Syk) [µM]	Structure (SMILES)
20.1 to 30		NC(=O)c1nc(-c2cccnc2)nc2c1[nH]c(=O)n2[C@H]1CC[C@H](O)CC1 [Compound 50, 9-(trans-4-Hydroxycyclohexyl)-8-oxo-2-(pyridin-3-yl)-8,9-dihydro-7H-purine-6-carboxamide]
	> 30	COc1ccccc1-n1c(=O)[nH]c2c(C(N)=O)nc(-c3ccnc(O)c3)nc21 [Compound 13, 2-(2-hydroxypyridin-4-yl)-9-(2-methoxyphenyl)-8-oxo-8,9-dihydro-7H-purine-6-carboxamide]
	> 30	COc1ccccc1-n1c(=O)[nH]c2c(C(N)=O)nc(-c3ccc(O)cc3)nc21 [Compound 8, 2-(4-hydroxyphenyl)-9-(2-methoxyphenyl)-8-oxo-8,9-dihydro-7H-purine-6-carboxamide]
